Data taken from US20140371244A1, “METHOD FOR TREATING PROSTATE CANCER BY USE OF PHARMACEUTICAL COMPOSITION CONTAINING A3 ADENOSINE RECEPTOR AGONIST” (priority 2009, published 2014).

Columns and labels:
PC-3 cells = assay: Western blot of cell cycle regulation-related proteins and Wnt signaling in PC-3 cells; format: cell-based, human
Experimental: (§1) A test was carried out to examine whether the inhibitory effects of thio-Cl-IB-MECA on the proliferation of LNCaP cells and PC-3 cells are attributable to regulation of the Wnt signaling pathway.
(§2) Specifically, each type of LNCaP cells and PC-3 cells was diluted with 10% FBS-containing medium to a density of 1.0×10^6 cells per 100 mm culture dish and cultured under the conditions of 37° C. and 5% CO2 for 24 hours, followed by washing twice with PBS. Thio-Cl-IB-MECA was diluted in 10% FBS-containing medium at required concentration, and then 10 ml of the culture medium prepared in the 100 mm culture dish was added thereto and cultured for a given period. The non-adherent cells and adherent cells in the cell medium were collected and washed twice with PBS, after which the cells were suspended in boiling cell lysis buffer and heated at 100° C. for 5 minutes. The cells were cooled and then stored at […], and the stored cells were thawed at 37° C. immediately before use in protein quantification and electrophoresis. Protein quantification was performed using the BCA method, and […] of protein was electrophoresed on 8-12% SDS-polyacrylamide gel at 150 V for 110 minutes. The gel at the desired site was cut and transferred to a PVDF (polyvinylidene fluoride) for 1 hour, and after which it was washed twice with PBST and stirred in blocking buffer at room temperature for 1 hour. Then, the membrane was washed three times with PBST for 5 minutes each time, after which primary antibody was diluted at a ratio of 1:1,000-1:2,000 with 3% skimmed milk/PBST, and it was sealed together with the membrane and incubated with stirring at 4° C. for 12 hours or more. The membrane was washed 2-3 times with PBST for 5 minutes each time, after which HRP-conjugated secondary antibody was diluted at a ratio of 1:1,500-1:2,000 and incubated with the membrane at room temperature for 2-3 hours. The membrane was washed three times with PBST for 5 minutes each time and treated with a Western blot substrate (WESTSAVE Up™), and the produced luminescence was examined using LAS-3000.

LNCaP cells [1] = assay: Cell cycle analysis (FACS) in LNCaP cells; format: cell-based, human; conditions: 40, 20 and 10 μM, 48 hours
Experimental: Cells were treated with 40, 20 and 10 μM of thio-Cl-IB-MECA and cultured for 48 hours, and the cell cycle of the cells was analyzed by flow cytometer analysis (FACS). Specifically, cells were diluted with 10% FBS-containing medium to a density of 1.0×10^6 cells per 100 mm culture dish and cultured under the conditions of 37° C. and 5% CO2 for 24 hours, followed by washing twice with PBS. Thio-Cl-IB-MECA was diluted in 10% FBS-containing medium at required concentration, and then 10 ml of the culture medium prepared in the 100 mm culture dish was added thereto and cultured for a given time. The non-adherent cells and adherent cells in the cell medium were collected and washed twice with PBS, after which 500 μL of 100% cold methanol was added thereto and the cells were fixed at 4° C. The cells were washed twice with PBS and allowed to stand in RNase A-containing solution for 30 minutes, after which the cells were stained with propidium iodide (PI) buffer for 5 minutes. After removal of the PI buffer, the cells were transferred into a polystyrene round-bottom tube, and cell cycle analysis was performed by FACScalibur® flow cytometry.

LNCaP = assay: Morphological change of LNCaP cells; format: cell-based, human; conditions: 40, 20 and 10 μM, 48 hours
Experimental: (§3) Each of LNCaP and PC-3 prostate cancer cell lines was treated with 40, 20 and 10 μM of thio-Cl-IB-MECA and cultured for 48 hours, and then the morphological change of the cells was observed.
(§4) Specifically, each type of the prostate cancer cells was diluted with 10% FBS (Fetal Bovine Serum)-containing medium to a density of 1.0×10^6 cells per 100 mm culture dish and cultured under the conditions of 37° C. and 5% CO2, followed by washing twice with PBS (Phosphate Buffered Saline). Thio-Cl-IB-MECA was diluted in 10% FBS-containing medium at required concentration, and then 10 ml of the culture medium prepared in the 100 mm culture dish was added thereto and incubated for a given time. The morphology of the cells was observed as a function of treatment time and concentration (FIGS. 11a and 11b).

ICR white mice = assay: Animal toxicity test, single oral dose; format: in vivo; conditions: oral 1500 mg/kg, n=10
Experimental: In order to examine the toxicities of thio-Cl-IB-MECA and thio-IB-MECA, each of the compounds was administered orally to ICR white mice (n=10, 25 g) at a dose of 1500 mg/kg weight, and the behavioral change and state of the mice were observed.

NF-κB = NF-κB signaling (Western blot, EMSA) in LPS-stimulated RAW 264.7 cells; format: cell-based, mouse
Text: NF-κB is a transcription factor consisting of p65/p50 and is present in an inactivated state by binding to IκB in the cytoplasm, but when it is stimulated by, for example, LPS, it is activated by a series of processes, including the phosphorylation and degradation of IκB by IκB kinase (IKK). When NF-κB state becomes a free state, it moves into the nucleus and binds to the κB-binding site, thereby regulating the expression of genes, such as iNOS, TNF-α and IL-1β, which are involved in inflammatory reactions. Thus, the effect of the inventive composition on the NF-κB signaling system was tested by Western blot analysis and EMSA.
EMSA was performed in order to examine whether NF-κB moves into the nucleus to bind to DNA.

PC-3 = assay: Morphological change of PC-3 cells; format: cell-based, human; conditions: 40, 20 and 10 μM, 48 hours
Experimental: as §3, §4

LNCaP cells [2] = assay: Western blot of cell cycle regulation-related proteins and Wnt signaling in LNCaP cells; format: cell-based, human
Experimental: as §1, §2

TNF-α = TNF-α secretion (ELISA) and mRNA expression (RT-PCR) in LPS-stimulated RAW 264.7 cells; format: cell-based, mouse
Experimental: TNF-α is a cytokine whose expression increases in cells stimulated by LPS, and it influences the expression of IL-1β and the progression of inflammatory reactions. Thus, the effect of the inventive composition on the expression of TNF-α was examined. Specifically, RAW 264.7 cells were pretreated with each of 20, 10 and 5 μM of the inventive composition (thio-Cl-IB-MECA) and treated with LPS (1 μg/ml) to induce inflammatory reactions. Then, the cells were incubated for 6 hours, after which the supernatant was taken and the amount of TNF-α secreted into the supernatant was measured using an ELISA ([…]) kit.
In addition, in order to examine whether TNF-α is expressed at the gene level, the effect of the inventive composition on the expression of TNF-α mRNA was also tested using the RT-PCR method.

CNC(=O)[C@H]1S[C@@H](n2cnc3c(NCc4cccc(I)c4)nc(Cl)nc32)[C@H](O)[C@@H]1O [thio-Cl-IB-MECA, 2-chloro-N^6-(3-iodobenzyl)-4′-thioadenosine-5′-N-methyluronamide]
Wnt signaling pathway, PC-3 (PC-3 cells): inhibited the Wnt signaling pathway
expression and RB phosphorylation of cyclin D, cyclin A, CDK4, c-myc and PCNA, PC-3 (PC-3 cells): inhibited the expression and RB phosphorylation
expression of p53 and p27, PC-3 (PC-3 cells): increased the expression
G1 phase of cell cycle, LNCaP (LNCaP cells [1]): an increase in the G1 phase appeared
number of the cells, LNCaP (LNCaP): decreased in a concentration-dependent manner
survival and side effects up to 7 days after administration (ICR white mice): survived healthfully without particular side effects
degradation of IκB protein (NF-κB; 20 μM, 15 minutes after LPS): the degradation of IκB protein was inhibited
DNA binding of NF-κB (NF-κB; EMSA): inhibited the DNA binding of NF-κB
protein bonding of p65 subunit of NF-κB (NF-κB; EMSA): inhibited
number of the cells, PC-3 (PC-3): decreased in a concentration-dependent manner
Wnt signaling pathway, LNCaP (LNCaP cells [2]): inhibited the Wnt signaling pathway
expression and RB phosphorylation of cyclin D, cyclin A, CDK4, c-myc and PCNA, LNCaP (LNCaP cells [2]): inhibited the expression and RB phosphorylation
expression of p53 and p27, LNCaP (LNCaP cells [2]): increased the expression
amount of TNF-α secreted (TNF-α; ELISA, 5, 10, 20 μM, LPS 1 μg/ml, 6 hours): concentration-dependently inhibited
expression of TNF-α mRNA (TNF-α; RT-PCR): also inhibited
